The values that follow are results of earlier work, collected in US6855835B2, “Allomorph of isomer Z hydrochloride of alkylaminofurane derivative” (Pharmexcel SRL, priority 2000, dated 2005).

Molecules are shown by their SMILES.

One series relates to histamine H2-receptors. The conditions noted are these: Z isomer compared with E isomer; suggested by authors (10, 11).
The conditions of series [1]: form 2 compared with form 1; quoted from prior patent (6).

Chain of histamine H2-receptors (P25021 whole entry): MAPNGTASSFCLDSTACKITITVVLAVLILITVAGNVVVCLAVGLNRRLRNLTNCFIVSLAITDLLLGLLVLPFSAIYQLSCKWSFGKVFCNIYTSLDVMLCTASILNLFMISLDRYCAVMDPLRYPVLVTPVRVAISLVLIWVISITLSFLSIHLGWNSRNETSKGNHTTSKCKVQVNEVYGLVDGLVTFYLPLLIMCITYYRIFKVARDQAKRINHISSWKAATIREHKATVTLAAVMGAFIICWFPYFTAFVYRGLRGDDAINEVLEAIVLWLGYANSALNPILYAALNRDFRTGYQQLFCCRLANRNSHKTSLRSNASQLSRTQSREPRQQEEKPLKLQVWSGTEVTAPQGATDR

For `CN/C(=C/[N+](=O)[O-])NCCSCc1ccc(CN(C)C)o1` (single isomer, unassigned) [Z, (N-[2-[[[5-(dimethylamino)methyl-2-furanyl]methyl]thio]ethyl]-N′-methyl-2-nitro-1,1-ethenediamine)], the “affinity for histamine H2-receptors” value in the series on histamine H2-receptors is on record as “greater configurational affinity”.

Regarding `CNC(=C[N+](=O)[O-])NCCSCc1ccc(CN(C)C)o1.Cl` (racemic) [form 2, N-[2-[[[5-(dimethylamino)methyl-2-furanyl]methyl]thio]ethyl]-N′-methyl-2-nitro-1,1-ethenediamine hydrochloride], in series [1], the hygroscopicity result is reported as “less hygroscopic than form 1”.
